From ChEMBL document CHEMBL1201862, “PubChem BioAssay data set” (2004)
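These data come from cells grown in 96-well plates and exposed to compound for 48 hours at five concentrations. Here, GI50 denotes the concentration required for 50% inhibition of growth.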 Activity calls are given as the source filed them. Rule as the data show it: active = GI50 up to about 1.1 µM and inactive = higher.

Assays:
Test in all cases: NCI tumour cell line growth inhibition, 48 h
[1] = system: A549
[2] = system: CAKI-1
[3] = system: EKVX
[4] = system: IGROV-1
[5] = system: KM12
[6] = system: MOLT-4
[7] = system: OVCAR-5
[8] = system: OVCAR-8
[9] = system: RPMI-8226
[10] = system: SF-295
[11] = system: SK-MEL-28
[12] = system: SK-MEL-5
[13] = system: SNB-19
[14] = system: SNB-78
[15] = system: UACC-257
[16] = system: UACC-62
[17] = system: SK-MEL-2
[18] = system: DMS-114
[19] = system: MDA-MB-231
[20] = system: NCI/ADR-RES

SMILES | GI50 [1] | GI50 [2] | GI50 [3] | GI50 [4] | GI50 [5] | GI50 [6] | GI50 [7] | GI50 [8] | GI50 [9] | GI50 [10] | GI50 [11] | GI50 [12] | GI50 [13] | GI50 [14] | GI50 [15] | GI50 [16] | GI50 [17] | GI50 [18] | GI50 [19] | GI50 [20]
O=C(/C=C/c1ccccc1)Oc1cccc2cccnc12 | 12.9 µM (inactive) | 32 µM (inactive) | 6.65 µM (inactive) | 11.2 µM (inactive) | 8.39 µM (inactive) | 3.2 µM (inactive) | 14.7 µM (inactive) | 4.02 µM (inactive) | 4.38 µM (inactive) | 8.28 µM (inactive) | 16.4 µM (inactive) | 7.74 µM (inactive) | 31.4 µM (inactive) | 21 µM (inactive) | 2.88 µM (inactive) | 5.47 µM (inactive) |  |  |  | 
O=c1c2cc(Br)ccc2[nH]c(=S)n1-c1ccccc1 | > 100 µM (inactive) | > 100 µM (inactive) | > 100 µM (inactive) | > 100 µM (inactive) | > 100 µM (inactive) |  | > 100 µM (inactive) | > 100 µM (inactive) | > 100 µM (inactive) | > 100 µM (inactive) | > 100 µM (inactive) | > 100 µM (inactive) | > 100 µM (inactive) | > 100 µM (inactive) | > 100 µM (inactive) | > 100 µM (inactive) | > 100 µM (inactive) |  |  | 
CNS(=O)(=O)NN(C)S(=O)(=O)c1ccccc1 | > 100 µM (inactive) | > 100 µM (inactive) | > 100 µM (inactive) | > 100 µM (inactive) | > 100 µM (inactive) | > 100 µM (inactive) |  | > 100 µM (inactive) | > 100 µM (inactive) | > 100 µM (inactive) |  | > 100 µM (inactive) | > 100 µM (inactive) |  | > 100 µM (inactive) | > 100 µM (inactive) | > 100 µM (inactive) | > 100 µM (inactive) |  | 
CC(Oc1ccc2c(-c3ccc(Cl)cc3)cc(=O)oc2c1)C(=O)O (stereo unspecified) | > 100 µM (inactive) | > 100 µM (inactive) | > 100 µM (inactive) | > 100 µM (inactive) | > 100 µM (inactive) | > 100 µM (inactive) |  | > 100 µM (inactive) |  | > 100 µM (inactive) | > 100 µM (inactive) | > 100 µM (inactive) | > 100 µM (inactive) | > 100 µM (inactive) | > 100 µM (inactive) | > 100 µM (inactive) |  |  |  | 
CC(C)(C)N/N=C(\C(=O)Nc1cccc(Cl)c1)C1C(=O)Nc2ccccc2[S+]1[O-] (stereo unspecified) | > 100 µM (inactive) | > 100 µM (inactive) | > 100 µM (inactive) | > 100 µM (inactive) | > 100 µM (inactive) | > 100 µM (inactive) |  | > 100 µM (inactive) |  | > 100 µM (inactive) | > 100 µM (inactive) | > 100 µM (inactive) | > 100 µM (inactive) |  | > 100 µM (inactive) | > 100 µM (inactive) | > 100 µM (inactive) | > 100 µM (inactive) |  | 
CN1CC[C@]23c4c5ccc(O)c4O[C@H]2C(O)CC[C@@]3(O)[C@H]1C5 (stereo partly specified) | > 100 µM (inactive) | > 100 µM (inactive) | > 100 µM (inactive) | > 100 µM (inactive) | > 100 µM (inactive) | > 100 µM (inactive) | > 100 µM (inactive) | > 100 µM (inactive) | > 100 µM (inactive) | > 100 µM (inactive) | > 100 µM (inactive) | > 100 µM (inactive) | > 100 µM (inactive) |  | > 100 µM (inactive) | > 100 µM (inactive) | > 100 µM (inactive) |  | > 100 µM (inactive) | > 100 µM (inactive)
O=C1c2cccnc2C(=O)c2c1nc1ccccc1c2-c1cncc(-c2c3c(nc4ccccc24)C(=O)c2cccnc2C3=O)c1 | 0.37 µM (active) | 0.332 µM (active) | 0.264 µM (active) | < 0.0144 µM (active) | 0.212 µM (active) | 0.117 µM (active) | 1.8 µM (inactive) | 0.0634 µM (active) | 0.141 µM (active) | 0.614 µM (active) | 0.22 µM (active) | 0.0568 µM (active) | 0.22 µM (active) |  | 0.318 µM (active) | 0.474 µM (active) | 0.693 µM (active) |  | 0.237 µM (active) | 0.253 µM (active)
CC(=O)OCC1OC(O/C=C(\CN=[N+]=[N-])C(C)=O)C(OC(C)=O)C(OC(C)=O)C1OC(C)=O (stereo unspecified) | 20.7 µM (inactive) | 3.01 µM (inactive) | 14.7 µM (inactive) | 15.6 µM (inactive) | 18.7 µM (inactive) | 2.53 µM (inactive) | 16.5 µM (inactive) | 6.01 µM (inactive) | 1.74 µM (inactive) | 37.2 µM (inactive) | 18.9 µM (inactive) | 13.2 µM (inactive) | 27.6 µM (inactive) |  | 3.56 µM (inactive) | 11.6 µM (inactive) | 16.1 µM (inactive) |  | 12.7 µM (inactive) | 21 µM (inactive)
[O-][S+]1c2ccccc2N=C(c2ccc3ccccc3c2)CC1C1=CC=CCC1 (stereo unspecified) | 26.3 µM (inactive) | 16.1 µM (inactive) | 22.7 µM (inactive) | 13.2 µM (inactive) | 14.9 µM (inactive) | 13.7 µM (inactive) | 18.9 µM (inactive) | 20.3 µM (inactive) | 8.75 µM (inactive) | 17.7 µM (inactive) | 18.2 µM (inactive) | 16.6 µM (inactive) | > 10 µM (inactive) |  | 18.3 µM (inactive) | 15.7 µM (inactive) | 19.1 µM (inactive) | 15.2 µM (inactive) |  | 
Cc1cc(C)c(-c2noc(-c3ccc(Cl)cc3)c2C2=NCCCN2)c(C)c1 | 24 µM (inactive) | > 100 µM (inactive) | 18 µM (inactive) | 32.1 µM (inactive) | 23 µM (inactive) | 16.8 µM (inactive) | 31.6 µM (inactive) | 26.7 µM (inactive) | 16.2 µM (inactive) | 11.2 µM (inactive) | 14.8 µM (inactive) | 10.4 µM (inactive) | 21.3 µM (inactive) | 14.8 µM (inactive) | 15.1 µM (inactive) | 16.3 µM (inactive) | 20.9 µM (inactive) |  |  | 
c1cnc2c(c1)-n1cccc1C1(CCOCC1)NN2 | > 100 µM (inactive) | > 100 µM (inactive) | > 100 µM (inactive) | > 100 µM (inactive) | > 100 µM (inactive) | > 100 µM (inactive) |  | > 100 µM (inactive) | > 100 µM (inactive) | > 100 µM (inactive) | > 100 µM (inactive) | > 100 µM (inactive) | > 100 µM (inactive) |  |  |  | > 100 µM (inactive) | > 100 µM (inactive) |  | 
O=C1CCCCCCC2=C1C(Sc1ccccc1)CC2 (stereo unspecified) | 45.5 µM (inactive) |  | 20.5 µM (inactive) |  | 23.2 µM (inactive) | 18.1 µM (inactive) |  | 23 µM (inactive) | 30.3 µM (inactive) | 45 µM (inactive) | 32.4 µM (inactive) | 30.5 µM (inactive) | 40.3 µM (inactive) | > 100 µM (inactive) | 43.2 µM (inactive) | 36.1 µM (inactive) |  | 23.7 µM (inactive) |  | 
CCCCCCCCCCCCC(Br)C(=O)SCCNC(=O)CCNC(=O)[C@@H](O)C(C)(C)COP(=O)(O)OP(=O)(O)OCC1OC(n2cnc3c(N)ncnc32)C(O)C1OP(=O)(O)O (stereo partly specified) | > 56.5 µM (inactive) |  | > 56.5 µM (inactive) | > 56.5 µM (inactive) | > 56.5 µM (inactive) |  | > 56.5 µM (inactive) | 54.3 µM (inactive) |  | > 56.5 µM (inactive) | > 56.5 µM (inactive) | > 56.5 µM (inactive) | > 56.5 µM (inactive) | > 56.5 µM (inactive) | 14.6 µM (inactive) | > 56.5 µM (inactive) | > 56.5 µM (inactive) | > 56.5 µM (inactive) |  | 
CC12CO[C@@](C)(CC(S(=O)(=O)c3ccccc3)C1)O2 (stereo partly specified) | > 100 µM (inactive) |  | > 100 µM (inactive) | > 100 µM (inactive) | > 100 µM (inactive) | > 100 µM (inactive) | > 100 µM (inactive) | > 100 µM (inactive) | > 100 µM (inactive) | > 100 µM (inactive) | > 100 µM (inactive) | > 100 µM (inactive) | > 100 µM (inactive) | > 100 µM (inactive) | > 100 µM (inactive) | > 100 µM (inactive) | > 100 µM (inactive) | > 100 µM (inactive) |  | 
COC(=O)[C@@]12OC[C@]34[C@H]([C@@H](O)[C@@H]1O)[C@@]1(C)CC(=O)C(O)=C(C)[C@@H]1C[C@H]3OC(=O)[C@H](OC(=O)/C=C(\C)C(C)C)[C@@H]24 [BRUCEANTIN] | 0.02 µM (active) | 0.022 µM (active) | 0.0223 µM (active) | 0.02 µM (active) | 0.02 µM (active) | 0.02 µM (active) | 0.0265 µM (active) | 0.02 µM (active) | 0.02 µM (active) | 0.02 µM (active) | 0.02 µM (active) | 0.02 µM (active) | 0.02 µM (active) | 0.02 µM (active) | 0.0208 µM (active) | 0.02 µM (active) | 0.0209 µM (active) |  | 0.0384 µM (active) | 0.337 µM (active)
O=C(Nc1ncc([N+](=O)[O-])s1)c1ccccc1O [TIZOXANIDE] | 19.3 µM (inactive) | 29.6 µM (inactive) | 16.5 µM (inactive) | 23.6 µM (inactive) | 15.3 µM (inactive) | 18.5 µM (inactive) | 32.9 µM (inactive) | 17.9 µM (inactive) | 7 µM (inactive) | 7.89 µM (inactive) | 26.4 µM (inactive) | 15.2 µM (inactive) | 16.2 µM (inactive) |  | 20.7 µM (inactive) | 4.66 µM (inactive) | 12.5 µM (inactive) |  | 23.5 µM (inactive) | 13.6 µM (inactive)
